Data published in patent publication US20260022142A1, “MACROCYCLIC IMMUNOMODULATORS” (Bristol-Myers Squibb Company, priority 2022, published 2026).
Bridge positions count the residues as written; N and C are the ends. Square brackets hold non-standard residues; d marks the D form. Peptide text beside a SMILES is read from it. * marks the point of attachment. Phe(3-COOH) = N[C@@H](Cc1cccc(C(=O)O)c1)C(=O)O; Phe(4-CONH2) = NC(=O)c1ccc(C[C@H](N)C(=O)O)cc1; Phe(4-COOH) = N[C@@H](Cc1ccc(C(=O)O)cc1)C(=O)O; Phe(4-CH2NH2) = NCc1ccc(C[C@H](N)C(=O)O)cc1; Bip = N[C@@H](Cc1ccc(-c2ccccc2)cc1)C(=O)O; Phe(4-CN) = N#Cc1ccc(C[C@H](N)C(=O)O)cc1; Phe(4-NH2) = Nc1ccc(C[C@H](N)C(=O)O)cc1; Phe(3-Me) = Cc1cccc(C[C@H](N)C(=O)O)c1; Phe(4-F) = N[C@@H](Cc1ccc(F)cc1)C(=O)O; Phe(2-Me) = Cc1ccccc1C[C@H](N)C(=O)O; Cha = N[C@@H](CC1CCCCC1)C(=O)O; Carboxymethyl = O=C(O)C*; Orn = NCCC[C@H](N)C(=O)O; Aun = NCCCCCCCCCCC(=O)O; Dab = NCC[C@H](N)C(=O)O; Dap = NC[C@H](N)C(=O)O; AEEA = NCCOCCOCC(=O)O

Target: T1, PD-1/PD-L1 interaction (PE-labeled human PD-L1-Ig binding to Jurkat cell line over-expressing human PD-1) (Homo sapiens, UniProt Q15116)
T1 construct: expressed in transfected cells; host or cells: Jurkat
T1 sequence (Q15116 25-288): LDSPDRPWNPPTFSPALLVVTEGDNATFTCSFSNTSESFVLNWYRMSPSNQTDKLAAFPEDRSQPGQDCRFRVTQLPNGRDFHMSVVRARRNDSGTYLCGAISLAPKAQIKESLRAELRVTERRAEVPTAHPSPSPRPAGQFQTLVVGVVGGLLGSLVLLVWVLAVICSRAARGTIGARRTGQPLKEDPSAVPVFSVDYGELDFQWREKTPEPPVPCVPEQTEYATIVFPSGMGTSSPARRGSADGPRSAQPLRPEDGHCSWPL
Experiment: Jurkat-PD-1 Cell Binding High-Content Screening Assay (CBA)
Assay type: cell-based
Conditions: Jurkat cell line over-expressing human PD-1; PE-labeled PD-L1-Ig 20 nM final; read-out: Jurkat hPD1-PDL1 IC50
Outline: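 Human PD-L1-Ig carrying a covalent PE label on its Ig tag serves as the probe, applied at 20 nM final to compound-treated (2 h, 37° C) Jurkat-hPD-1 cells in medium with 10% fetal calf serum. After one hour, fixation and nuclear staining precede high-content image analysis.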

Row | Compound | IC50 [nM]
1 | Cc1cccc(C[C@@H]2NC(=O)[C@H](CC(=O)O)NC(=O)[C@H](Cc3ccc(OCC(=O)O)cc3)NC(=O)[C@H](CN)NC(=O)CSC[C@@H](C(=O)N[C@@H](CCN)C(=O)NCCOCCOCC(=O)NCCCCCCCCCCC(=O)O)NC(=O)[C@H](CCCN)NC(=O)[C@H](C(C)C)NC(=O)[C@H](CC3CCCCC3)NC(=O)[C@H](CCN)NC(=O)[C@@H](CC(C)C)NC(=O)[C@H](CCCN)NC(=O)[C@H](Cc3ccc(C(=O)O)cc3)NC(=O)[C@H](Cc3ccc(-c4ccccc4)cc3)NC(=O)[C@H](C(C)C)NC2=O)c1 [Compound 2062] ({CH2CO}-[Dap]Y(Carboxymethyl)D[Phe(3-Me)]V[Bip][Phe(4-COOH)][Orn][dL][Dab][Cha]V[Orn]C[Dab][AEEA][Aun]-OH; thioether N-14) | 7
2 | Cc1cccc(C[C@@H]2NC(=O)[C@H](CC(=O)O)NC(=O)[C@H](Cc3ccc(OCC(=O)O)cc3)NC(=O)[C@H](CN)NC(=O)CSC[C@@H](C(=O)N[C@@H](CCN)C(=O)NCCOCCOCC(=O)NCCCCCCCCCCC(=O)O)NC(=O)[C@H](CCCN)NC(=O)[C@H](C(C)C)NC(=O)[C@H](CC3CCCCC3)NC(=O)[C@H](CCN)NC(=O)[C@@H](CC(C)C)NC(=O)[C@H](CCCN)NC(=O)[C@H](Cc3ccc(O)cc3)NC(=O)[C@H](Cc3ccc(-c4ccccc4)cc3)NC(=O)[C@H](Cc3ccccc3)NC2=O)c1 [Compound 2063] ({CH2CO}-[Dap]Y(Carboxymethyl)D[Phe(3-Me)]F[Bip]Y[Orn][dL][Dab][Cha]V[Orn]C[Dab][AEEA][Aun]-OH; thioether N-14) | 4.9
3 | Cc1cccc(C[C@@H]2NC(=O)[C@H](CC(=O)O)NC(=O)[C@H](Cc3ccc(OCC(=O)O)cc3)NC(=O)[C@H](CN)NC(=O)CSC[C@@H](C(=O)N[C@@H](CCN)C(=O)NCCOCCOCC(=O)NCCCCCCCCCCC(=O)O)NC(=O)[C@H](CCCN)NC(=O)[C@H](C(C)C)NC(=O)[C@H](CC3CCCCC3)NC(=O)[C@H](CCN)NC(=O)[C@@H](CC(C)C)NC(=O)[C@H](CCCN)NC(=O)[C@H](Cc3ccc(O)cc3)NC(=O)[C@H](Cc3ccc(-c4ccccc4)cc3)NC(=O)[C@H](Cc3cccc(C(=O)O)c3)NC2=O)c1 [Compound 2064] ({CH2CO}-[Dap]Y(Carboxymethyl)D[Phe(3-Me)][Phe(3-COOH)][Bip]Y[Orn][dL][Dab][Cha]V[Orn]C[Dab][AEEA][Aun]-OH; thioether N-14) | 15.4
4 | Cc1cccc(C[C@@H]2NC(=O)[C@H](CC(=O)O)NC(=O)[C@H](Cc3ccc(OCC(=O)O)cc3)NC(=O)[C@H](CN)NC(=O)CSC[C@@H](C(=O)N[C@@H](CCN)C(=O)NCCOCCOCC(=O)NCCCCCCCCCCC(=O)O)NC(=O)[C@H](CCCN)NC(=O)[C@H](C(C)C)NC(=O)[C@H](CC3CCCCC3)NC(=O)[C@H](CCN)NC(=O)[C@@H](CC(C)C)NC(=O)[C@H](CCCN)NC(=O)[C@H](Cc3ccc(O)cc3)NC(=O)[C@H](Cc3ccc(-c4ccccc4)cc3)NC(=O)[C@H](Cc3ccc(N)cc3)NC2=O)c1 [Compound 2065] ({CH2CO}-[Dap]Y(Carboxymethyl)D[Phe(3-Me)][Phe(4-NH2)][Bip]Y[Orn][dL][Dab][Cha]V[Orn]C[Dab][AEEA][Aun]-OH; thioether N-14) | 4.8
5 | Cc1cccc(C[C@@H]2NC(=O)[C@H](CC(=O)O)NC(=O)[C@H](Cc3ccc(OCC(=O)O)cc3)NC(=O)[C@H](CN)NC(=O)CSC[C@@H](C(=O)N[C@@H](CCN)C(=O)NCCOCCOCC(=O)NCCCCCCCCCCC(=O)O)NC(=O)[C@H](CCCN)NC(=O)[C@H](C(C)C)NC(=O)[C@H](CC3CCCCC3)NC(=O)[C@H](CCN)NC(=O)[C@@H](CC(C)C)NC(=O)[C@H](CCCN)NC(=O)[C@H](Cc3ccc(O)cc3)NC(=O)[C@H](Cc3ccc(-c4ccccc4)cc3)NC(=O)[C@H](Cc3ccc(C(N)=O)cc3)NC2=O)c1 [Compound 2066] ({CH2CO}-[Dap]Y(Carboxymethyl)D[Phe(3-Me)][Phe(4-CONH2)][Bip]Y[Orn][dL][Dab][Cha]V[Orn]C[Dab][AEEA][Aun]-OH; thioether N-14) | 6
6 | Cc1cccc(C[C@@H]2NC(=O)[C@H](CC(=O)O)NC(=O)[C@H](Cc3ccc(OCC(=O)O)cc3)NC(=O)[C@H](CN)NC(=O)CSC[C@@H](C(=O)N[C@@H](CCN)C(=O)NCCOCCOCC(=O)NCCCCCCCCCCC(=O)O)NC(=O)[C@H](CCCN)NC(=O)[C@H](C(C)C)NC(=O)[C@H](CC3CCCCC3)NC(=O)[C@H](CCN)NC(=O)[C@@H](CC(C)C)NC(=O)[C@H](CCCN)NC(=O)[C@H](Cc3ccc(O)cc3)NC(=O)[C@H](Cc3ccc(-c4ccccc4)cc3)NC(=O)[C@H](Cc3ccc(CN)cc3)NC2=O)c1 [Compound 2067] ({CH2CO}-[Dap]Y(Carboxymethyl)D[Phe(3-Me)][Phe(4-CH2NH2)][Bip]Y[Orn][dL][Dab][Cha]V[Orn]C[Dab][AEEA][Aun]-OH; thioether N-14) | 53.2
7 | Cc1cccc(C[C@@H]2NC(=O)[C@H](CC(=O)O)NC(=O)[C@H](Cc3ccc(OCC(=O)O)cc3)NC(=O)[C@H](CN)NC(=O)CSC[C@@H](C(=O)N[C@@H](CCN)C(=O)NCCOCCOCC(=O)NCCCCCCCCCCC(=O)O)NC(=O)[C@H](CCCN)NC(=O)[C@H](C(C)C)NC(=O)[C@H](CC3CCCCC3)NC(=O)[C@H](CCN)NC(=O)[C@@H](CC(C)C)NC(=O)[C@H](CCCN)NC(=O)[C@H](Cc3ccc(O)cc3)NC(=O)[C@H](Cc3ccc(-c4ccccc4)cc3)NC(=O)[C@H](Cc3ccccc3C)NC2=O)c1 [Compound 2069] ({CH2CO}-[Dap]Y(Carboxymethyl)D[Phe(3-Me)][Phe(2-Me)][Bip]Y[Orn][dL][Dab][Cha]V[Orn]C[Dab][AEEA][Aun]-OH; thioether N-14) | 14.9
8 | Cc1cccc(C[C@@H]2NC(=O)[C@H](CC(=O)O)NC(=O)[C@H](Cc3ccc(OCC(=O)O)cc3)NC(=O)[C@H](CN)NC(=O)CSC[C@@H](C(=O)N[C@@H](CCN)C(=O)NCCOCCOCC(=O)NCCCCCCCCCCC(=O)O)NC(=O)[C@H](CCCN)NC(=O)[C@H](C(C)C)NC(=O)[C@H](CC3CCCCC3)NC(=O)[C@H](CCN)NC(=O)[C@@H](CC(C)C)NC(=O)[C@H](CCCN)NC(=O)[C@H](Cc3ccc(O)cc3)NC(=O)[C@H](Cc3ccc(-c4ccccc4)cc3)NC(=O)[C@H](Cc3ccc(F)cc3)NC2=O)c1 [Compound 2070] ({CH2CO}-[Dap]Y(Carboxymethyl)D[Phe(3-Me)][Phe(4-F)][Bip]Y[Orn][dL][Dab][Cha]V[Orn]C[Dab][AEEA][Aun]-OH; thioether N-14) | 11.6
9 | Cc1cccc(C[C@@H]2NC(=O)[C@H](CC(=O)O)NC(=O)[C@H](Cc3ccc(OCC(=O)O)cc3)NC(=O)[C@H](CN)NC(=O)CSC[C@@H](C(=O)N[C@@H](CCN)C(=O)NCCOCCOCC(=O)NCCCCCCCCCCC(=O)O)NC(=O)[C@H](CCCN)NC(=O)[C@H](C(C)C)NC(=O)[C@H](CC3CCCCC3)NC(=O)[C@H](CCN)NC(=O)[C@@H](CC(C)C)NC(=O)[C@H](CCCN)NC(=O)[C@H](Cc3ccc(O)cc3)NC(=O)[C@H](Cc3ccc(-c4ccccc4)cc3)NC(=O)[C@H](Cc3ccc(C#N)cc3)NC2=O)c1 [Compound 2071] ({CH2CO}-[Dap]Y(Carboxymethyl)D[Phe(3-Me)][Phe(4-CN)][Bip]Y[Orn][dL][Dab][Cha]V[Orn]C[Dab][AEEA][Aun]-OH; thioether N-14) | 4.8
